Measurements from patent publication US4897392A, “4H-indolo(1,2-d)(1,2,4)triazolo(4,3-A)(1,4)benzodiazepines” (Hoechst-Roussel Pharmaceuticals, Inc., priority 1989, dated 1990).

System: mice
Experiment: 2-phenyl-1,4-benzoquinone-induced writhing test in mice (Phenylquinone Writhing, PQW), analgesic activity
Assay type: in vivo
Text: The compounds of Formula I of the present invention are useful as analgesic agents due to their ability to alleviate pain in mammals. […] Exptl. Biol. Med., 95, 729 (1957)].

| Compound | Analgesic PQW, % Inhibition of Writhing at 20 mg/kg., s.c. | Analgesic PQW, % Inhibition of Writhing (reference compound, at 3.9 mg/kg, s.c.) (3.9 mg/kg) |
| --- | --- | --- |
| Cc1nnc2n1-c1ccccc1-c1cc3ccccc3n1C2 [1-Methyl-4H-indolo[1,2-d][1,2,4]triazolo[4,3-a][1,4]benzodiazepine] | 37% | – |
| Cc1nnc2n1-c1ccc(Cl)cc1-c1c(Cl)c3ccccc3n1C2 [10,12-Dichloro-1-methyl-4H-indolo[1,2-d][1,2,4]triazolo[4,3-a][1,4]benzodiazepine] | 32% | – |
| Cc1nnc2n1-c1ccccc1-c1c(Cl)c3ccccc3n1C2 [10-Chloro-1-methyl-4H-indolo[1,2-d][1,2,4]triazolo[4,3-a][1,4]benzodiazepin] | 51% | – |
| Cc1nnc2n1-c1ccc(Cl)cc1-c1cc3ccccc3n1C2 [12-Chloro-1-methyl-4H-indolo[1,2-d][1,2,4]triazolo[4,3-a][1,4]benzodiazepin] | 46% | – |
| CCC(=O)O[C@](Cc1ccccc1)(c1ccccc1)[C@H](C)CN(C)C [Propoxyphene, reference compound] | – | 50% |
